Results from US20180325840A1, “COMPOSITIONS AND METHODS FOR PREVENTING OR TREATING FATTY PANCREAS OR AMELIORATING PANCREAS DISEASES CAUSED BY FATTY PANCREAS, DIABETES MELLITUS OR OTHER RELATED DISORDERS” (NATIONAL DEFENSE EDUCATION AND RESEARCH FOUNDATION, priority 2015, published 2018).

How the values were obtained:
Format in all cases: in vivo
[1] = system: B6 mice; assay: Triglyceride (TG) and total cholesterol (TC) in pancreatic tissue of high-fat diet mice; settings: 4 weeks of administration
Experimental: (§1) The experimental animals employed were B6 mice. The number of test animals in each group of the pre-test was four or more, and the number of test animals in each group of the confirmation test was twelve or more. Male mice having a weight of 18 to 23 g were bred in an animal room with a normal light and dark cycle (7:00 am to 7:00 pm being the bright period, and the rest being the dark period) at a temperature of 23±2° C. and a relative humidity of 55±15%. After the animals were purchased from Lesco Biotech Co., Ltd. (Taipei) and housed at the National Defense Animal Center, the animal experiments were conducted following the Experimental Guide of National Health Research Institute. First, the animals were fed with 3-5 grams of general diet daily, and the water was supplied infinitely. After 1 to 2 weeks of breeding, the healthy state was observed. The body weight was recorded once a week.
(§2) The test animals were randomly grouped into blank control (Blank), high-fat control (HFD), positive control (PS), and test group. The blank control was given a normal diet; the high-fat control was given a high-fat diet; the positive control was given a high-fat diet and tube fed with silymarin (5 mg/kg/day) (Iranian Journal of Pharmaceutical Research (2016), 15 (3): 493-500; Life Sciences 75 (2004) 2167-2180; and Pharm Biol. 2016 Jul. 8:1-6); and the test group was given a high-fat diet and tube fed with the test ingredient individually.
(§3) The blank control was fed with a normal diet arbitrarily for 12 weeks. The high-fat control, the positive control, and the test group were fed with a high-fat diet arbitrarily for 12 weeks. After 8 weeks of feeding, the blank control and the high-fat control were tube fed with deionized water once a day. The positive control was tube fed with silymarin once a day. The test group was tube fed with test compound(s) once a day for 4 weeks.
1.4.6 Analysis of Triglyceride (TG) and Total Cholesterol (TCHO, TC) in Pancreatic Tissue
After the mice were sacrificed, the pancreas was taken out and weighed to compare the ratios of pancreas weight to body weight. The remaining pancreas was frozen and preserved, and the contents of triglyceride and the total cholesterol in the pancreas were measured.
(§4) All data were expressed as mean±standard deviation (SD), and the test results were calculated using the ANOVA test method to determine whether there was a statistically significant difference by using the Statistical Package of the Social Science program (Version 13, SPSS Inc.) software package. Subsequently, post hoc test least significant difference method was used to perform multiple comparisons to confirm the significant differences between the groups. The significant difference between the averages of the groups was p<0.05.

[2] = system: B6 mice; assay: Blood glucose analysis (GLU) in high-fat diet mice; settings: for GLU: fasted overnight, 4 weeks of administration; for effect on GLU (in words): single test compound
Experimental: as §1, §2, §3
1.4.2 Analysis of Biochemical Functions of the Pancreas: Blood Glucose Analysis (GLU)
Blood glucose analysis was performed with Roche's ACCU-CHEK Active blood glucose meter. One day before blood collection, mice were fasted overnight. The code card of the blood glucose test paper was inserted into the blood glucose meter, and then the blood glucose test paper was inserted. After the blood drop pattern appeared on the meter, a drop of blood was taken from in vein at the cheek of the mouse with a buccal needle and then dropped into the blood glucose test paper. The blood glucose data shown on the blood glucose meter were recorded.
as §4

[3] = system: B6 mice; assay: Intraperitoneal glucose tolerance test (IPGTT) in high-fat diet mice; settings: for AUC of IPGTT: 2 g/kg glucose IP, blood glucose vs. time, 4 weeks of administration; for effect on sugar tolerance (IPGTT, in words): single test compound
Experimental: as §1, with “Male mice having a weight of 18 to 23 g were bred in an animal room with a normal light and dark cycle (7:00 am to 7:00 pm being the bright period, and the rest being the dark period) at a temperature of 23±2° C. and a relative humidity of 55±15%.” left out
The test animals were randomly grouped into blank control (Blank), high-fat control (HFD), positive control (PS), and test group.
as §3
1.4.3 Analysis of Biochemical Functions of the Pancreas: Intraperitoneal Glucose Tolerance Test (IPGTT)
The mice were moved into a clean cage and fasted overnight. There was no food or feces at the feeding funnel or the bottom of the clean cage to ensure that the animals may get drinking water at all times. The body weight of the mice was measured, and the volume of the glucose solution required for intraperitoneone (IP) injection was calculated (based on a concentration of 250 mg/mL and 2 g of glucose per kg of mouse weight, the volume (μl) required would be 8× body weight (g)). The mice were moved out and injected intraperitoneally with an appropriate amount of glucose solution, and the injection time was recorded. Blood samples were taken from the tail of the mice at 0, 15, 30, 60, 120 and 150 minutes after the glucose solution was injected. The concentration of blood glucose was measured, and the blood glucose analysis was performed using the Roche's ACCU-CHEK Active blood glucose meter.
as §4

[4] = system: B6 mice; assay: Fasting insulin concentration (ELISA) in high-fat diet mice; settings: for fasting insulin concentration: 4 weeks of administration; for effect on fasting insulin concentration (in words): single test compound
Experimental: as §1, §2, §3
1.4.4 Analysis of Biochemical Functions of the Pancreas: Analysis of Fasting Insulin Concentration
At the end of the test (at the twelfth week), the mice were fasted to collect the blood following the operation instructions of the mouse ultrasensitive insulin ELISA kit (ALPCO).
as §4

[5] = system: B6 mice; assay: Homeostasis model assessment of insulin resistance (HOMA-IR) in high-fat diet mice; settings: for HOMA-IR: 4 weeks of administration; for effect on insulin resistance (in words): single test compound
Experimental: as §1, §2, §3
1.4.5 Analysis of Biochemical Functions of the Pancreas: Homeostasis Model Assessment of Insulin Resistance (HOMA-IR)
The mice were fasted to collect the blood at the end of the test (at the twelfth week), and the concentrations of blood glucose and insulin were measured and calculated according to the following formula: […]
as §4

[6] = system: B6 mice; assay: Serum (plasma) triglyceride (TG) in high-fat diet mice; settings: for TG (plasma triglyceride): 4 weeks of administration
Experimental: as §1, §2, §3
Before the start of the test and at the 8th and 12th week after the start of the test, blood was collected from the cheek or heart. All the animals were weighed and then sacrificed at the end of the test, and blood was collected from the cheek or heart again. The blood samples of mice were allowed to stand at room temperature for 1 hour to coagulate, and then centrifuged at 15,700×g by a frozen centrifuge at 4° C. for 5 minutes to separate the serum.
1.4.1 Analysis of Serum Triglyceride (TG) and Total Cholesterol (TCHO, TC)
Triglyceride (TG) and total cholesterol (TCHO, TC) in the serum were measured by the automatic blood biochemical analyzer.
as §4

Row | SMILES | pancreatic TC ([1]; 2.5 mg/kg tube fed once a day) [mg/g pancreatic tissue] | pancreatic TG ([1]; 2.5 mg/kg tube fed once a day) [mg/g pancreatic tissue] | GLU ([2]; 2.5 mg/kg) [mg/dL] | AUC of IPGTT ([3]; 2.5 mg/kg) [g·h/dL] | effect on sugar tolerance (IPGTT, in words) [3] | fasting insulin concentration ([4]; 2.5 mg/kg) [ng/mL] | effect on fasting insulin concentration (in words) [4] | HOMA-IR ([5]; 2.5 mg/kg) | effect on insulin resistance (in words) [5] | TG (plasma triglyceride) ([6]; 2.5 mg/kg) [mg/dL] | pancreatic TC ([1]; 1.5 mg/kg tube fed once a day) [mg/g pancreatic tissue] | pancreatic TG ([1]; 1.5 mg/kg tube fed once a day) [mg/g pancreatic tissue] | GLU ([2]; 1.5 mg/kg) [mg/dL] | effect on GLU (in words) [2] | AUC of IPGTT ([3]; 1.5 mg/kg) [g·h/dL] | fasting insulin concentration ([4]; 1.5 mg/kg) [ng/mL] | HOMA-IR ([5]; 1.5 mg/kg) | TG (plasma triglyceride) ([6]; 1.5 mg/kg) [mg/dL] | also measured
1 | O=C1C[C@@H](c2ccc(O)c(O)c2)Oc2cc(O)cc(O)c21 [eriodictyol] | 3.5 ± 0.6 | 4.5 ± 2.8 | 219.0 ± 35.6 | 41.9 ± 5.9 | significantly reduce | 1.1 ± 0.4 | significantly reduce | 0.6 ± 0.2 | significantly reduce | 135.4 ± 43.4 |  |  |  |  |  |  |  |  | TG (plasma triglyceride) ([6]; 5.0 mg/kg): 143.2 ± 15.1 mg/dL; effect on triglyceride in plasma (in words) ([6]; as compared with the high-fat control): significantly reduce
2 | O=c1c(-c2ccc(O)cc2)coc2c([C@@H]3O[C@H](CO)[C@@H](O)[C@H](O)[C@H]3O)c(O)ccc12 [puerarin] | 4.0 ± 1.2 | 17.3 ± 13.4 | 172.3 ± 22.2 | 45.1 ± 11.2 | significantly reduce | 0.9 ± 0.3 | significantly reduce | 0.4 ± 0.2 | significantly reduce | 166.7 ± 22.0 |  |  |  |  |  |  |  |  | 
3 | O=C(CCc1ccc(O)cc1)c1c(O)cc(O)cc1O[C@@H]1O[C@H](CO)[C@@H](O)[C@H](O)[C@H]1O [phloridzin] | 3.3 ± 1.1 | 23.3 ± 24.0 | 216.2 ± 26.4 | 51.3 ± 8.9 |  | 1.1 ± 0.3 |  | 0.6 ± 0.2 |  | 148.3 ± 31.4 |  |  |  |  |  |  |  |  | 
4 | COc1ccc([C@@H]2CC(=O)c3c(O)cc(O)cc3O2)cc1O [hesperitin] | 4.4 ± 0.7 | 5.7 ± 1.6 |  |  |  |  |  |  |  | 190.1 ± 25.9 |  |  |  |  |  |  |  |  | 
5 | OC[C@H]1O[C@H](O[C@]2(CCl)O[C@H](CCl)[C@@H](O)[C@@H]2O)[C@H](O)[C@@H](O)[C@H]1Cl [sucralose] |  |  |  |  | significantly reduce |  | significantly reduce |  | significantly reduce |  | 4.2 ± 0.5 | 8.1 ± 5.6 | 128.7 ± 19.3 | significantly reduce | 44.2 ± 3.7 | 1.3 ± 0.5 | 0.4 ± 0.2 | 126.9 ± 43.3 | pancreatic TC ([1]; 7.5 mg/kg tube fed once a day): 3.1 ± 0.4 mg/g pancreatic tissue; pancreatic TG ([1]; 7.5 mg/kg tube fed once a day): 5.2 ± 2.1 mg/g pancreatic tissue; TG (plasma triglyceride) ([6]; 7.5 mg/kg): 186.9 ± 17.2 mg/dL
6 | OC[C@@H](O)[C@@H](O)[C@H](O)[C@H](O)CO [mannitol] |  |  |  |  | significantly reduce |  | significantly reduce |  | significantly reduce |  | 3.7 ± 1.0 | 12.6 ± 7.5 | 112.2 ± 32.0 | significantly reduce | 42.7 ± 1.7 | 1.1 ± 0.4 | 0.3 ± 0.1 | 158.9 ± 48.9 | pancreatic TC ([1]; 4.5 mg/kg tube fed once a day): 3.3 ± 0.7 mg/g pancreatic tissue; pancreatic TG ([1]; 4.5 mg/kg tube fed once a day): 9.6 ± 5.1 mg/g pancreatic tissue; pancreatic TC ([1]; 7.5 mg/kg tube fed once a day): 3.1 ± 0.3 mg/g pancreatic tissue; pancreatic TG ([1]; 7.5 mg/kg tube fed once a day): 4.7 ± 4.0 mg/g pancreatic tissue; TG (plasma triglyceride) ([6]; 4.5 mg/kg): 180.1 ± 46.7 mg/dL; TG (plasma triglyceride) ([6]; 7.5 mg/kg): 163.9 ± 31.9 mg/dL
7 | O=C1NS(=O)(=O)c2ccccc21 [saccharin] |  |  |  |  | significantly reduce |  | significantly reduce |  | significantly reduce |  | 3.0 ± 0.8 | 4.7 ± 2.9 | 92.0 ± 9.6 | significantly reduce | 41.9 ± 6.2 | 1.3 ± 1.1 | 0.3 ± 0.3 | 142.6 ± 34.6 | 
8 | CC1CCC(C(C)C)C(O)C1 (stereo not shown) [menthol] |  |  |  |  | significantly reduce |  | significantly reduce |  | significantly reduce |  | 4.4 ± 0.9 | 18.1 ± 18.3 | 125.7 ± 33.5 | significantly reduce | 45.6 ± 4.8 | 1.2 ± 0.8 | 0.4 ± 0.4 | 173.7 ± 56.7 | 
